Tested on: NCI-H719 tumor spheroids, viability
Assay: Anticancer human tumor NCI-H719 cell line growth inhibition;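 further: spheroids exposed to compounds for seven days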;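 on viability, T/C: percent viability relative to DMSO vehicle control as 100%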
Settings: spheroids with HUVEC and MSC; for IC50: curve of first compound; for viability, T/C: stronger effect = lower value
Description: Multicellular complex tumor spheroid response to DNA repair inhibitors in combination with DNA-damaging drugs
This study explores the anticancer activities of DNA-damaging drugs and inhibitors of DNA damage repair, both as single agents and in combinations. Complex tumor spheroids comprised of malignant cells, endothelial cells and mesenchymal stem cells served as an in vitro model for human solid tumors. This model system incorporates physiologically relevant features and patient-derived or established malignant cell lines with clinically relevant genetic alterations from many tumor types. Twenty-six patient-derived or established malignant cell lines were evaluated representing sarcoma, melanoma, small cell lung cancer (SCLC), non-small cell lung cancer (NSCLC), as well as bladder, ovarian and pancreatic cancers. The concentration ranges selected for each drug and investigational agent were based upon clinically achievable concentrations if the clinical Cmax of the agent was known.
Compounds. The drugs and compounds olaparib (NSC753686), talazoparib (NSC767125), berzosertib (NSC777718), elimusertib (NSC800525), nedisertib (NSC802822), VX-984 (NSC792969), AZD-1390 (NSC803789), temozolomide (NSC362856), topotecan (NSC609699), trabectedin (NSC813783), staurosporine (NSC755774), and gemcitabine (NSC613327) were obtained from the National Cancer Institute (NCI) Developmental Therapeutics Program Chemical Repository. The FDA-approved anticancer drug set is available from the Developmental Therapeutics Program at https://dtp.cancer.gov/organization/dscb/obtaining/available_plates.htm. […] The stock solutions were prepared in dimethyl sulfoxide (DMSO, Sigma-Aldrich, St. Louis, MO, cat. D2650) at 400-fold the tested concentration and stored at -70 degrees C. Prior to their use, the stock solutions were diluted in fresh medium and the final DMSO concentration in the assay was 0.25% (v/v). All drugs and investigational agents were tested over a range starting from a high concentration at or near the clinical Cmax and decreasing in half-log increments. If the clinical Cmax for an agent had not been determined, the highest concentration tested was 10 microM.
Cell Lines. The patient-derived cancer cell (PDC) lines: 156681-154-R-J1-PDC, 283228-195-R-J1-PDC, 287954-098-R-J1-PDC, 292921-168-R-J2-PDC, 349418-098-R-PDC, 425362-245-T-J1-PDC, 556581-035-R-J1-PDC, and BL0293-F563-PDC were received from the NCI Patient-Derived Models Repository (PDMR, https://pdmr.cancer.gov). The established cell lines HS-SY-2 (RRID:CVCL_8719), MPNST, and SYO-1 (RRID:CVCL_7146) were obtained from the Sloan Kettering Institute. The alveolar soft parts sarcoma cell line ASPS-1 (RRID:CVCL_S738) was established at the NCI and grown from internal seed stocks. The following established cell lines were purchased from the American Type Culture Collection (ATCC, Manassas, VA): G-401 (ATCC, cat. CRL-1441, RRID:CVCL_0270), SW982 (ATCC, cat. HTB-93, RRID:CVCL_1734), VA-ES-BJ (ATCC, cat. CRL-2138, RRID:CVCL_1785), NCI-H719 (ATCC, cat. CRL-5837, RRID:CVCL_1582), NCI-H196 (ATCC, cat. CRL-5823, RRID:CVCL_1509), NCI-H841 (ATCC, cat. CRL-5845, RRID:CVCL_1595), NCI-H1618 (ATCC, cat. CRL-5879, RRID:CVCL_1480), NCI-H1876 (ATCC, cat. CRL-5902, RRID:CVCL_1503), DMS 114 (ATCC, cat. CRL-2066; RRID:CVCL_1174), NCI-H211 (ATCC, cat. CRL-5824; RRID:CVCL_1529), and SW 1271 (ATCC, cat. CRL-2177, RRID:CVCL_1716). The small cell lung cancer cell line COR-L88 was purchased from Sigma-Aldrich (cat. 92031917-1VL, RRID:CVCL_1141). The non-small cell lung cancer cell lines NCI-H226 (RRID:CVCL_1544) and NCI-H322M (RRID:CVCL_1557) were established at the NCI and grown from internal seed stocks. Pooled donor human umbilical vein endothelial cells (HUVEC, Lonza, cat. CC-2519) and human mesenchymal stem cells (hMSC, Lonza, cat. PT-2501) were purchased from Lonza (Walkersville, MD).
Cell Culture. All cells were maintained in an incubator at 37 degrees C and 5% CO2 with 95% humidity. […]

[1] = second compound 0.003 µM, first compound 0.00949 µM
[2] = second compound 0.003 µM, first compound 0.03 µM
[3] = second compound 0.003 µM, first compound 0.0949 µM
[4] = second compound 0.003 µM, first compound 0.3 µM
[5] = second compound 0.003 µM, first compound 0.949 µM
[6] = second compound 0.003 µM, first compound 3 µM
[7] = second compound 0.00949 µM, first compound 0.00949 µM
[8] = second compound 0.00949 µM, first compound 0.03 µM
[9] = second compound 0.00949 µM, first compound 0.0949 µM
[10] = second compound 0.00949 µM, first compound 0.3 µM
[11] = second compound 0.00949 µM, first compound 0.949 µM
[12] = second compound 0.00949 µM, first compound 3 µM
[13] = second compound 0.03 µM, first compound 0.00949 µM
[14] = second compound 0.03 µM, first compound 0.03 µM
[15] = second compound 0.03 µM, first compound 0.0949 µM
[16] = second compound 0.03 µM, first compound 0.3 µM
[17] = second compound 0.03 µM, first compound 0.949 µM
[18] = second compound 0.03 µM, first compound 3 µM
[19] = second compound 0.0949 µM, first compound 0.00949 µM
[20] = second compound 0.0949 µM, first compound 0.03 µM
[21] = second compound 0.0949 µM, first compound 0.0949 µM
[22] = second compound 0.0949 µM, first compound 0.3 µM
[23] = second compound 0.0949 µM, first compound 0.949 µM
[24] = second compound 0.0949 µM, first compound 3 µM
[25] = second compound 0.3 µM, first compound 0.00949 µM
[26] = second compound 0.3 µM, first compound 0.03 µM
[27] = second compound 0.3 µM, first compound 0.0949 µM
[28] = second compound 0.3 µM, first compound 0.3 µM
[29] = second compound 0.3 µM, first compound 0.949 µM
[30] = second compound 0.3 µM, first compound 3 µM

SMILES | IC50 (second compound 0.003 µM) [nM] | IC50 (second compound 0.00949 µM) [nM] | IC50 (second compound 0.03 µM) [nM] | IC50 (second compound 0.0949 µM) [nM] | IC50 (second compound 0.3 µM) [nM] | viability, T/C [1] [%] | viability, T/C [2] [%] | viability, T/C [3] [%] | viability, T/C [4] [%] | viability, T/C [5] [%] | viability, T/C [6] [%] | viability, T/C [7] [%] | viability, T/C [8] [%] | viability, T/C [9] [%] | viability, T/C [10] [%] | viability, T/C [11] [%] | viability, T/C [12] [%] | viability, T/C [13] [%] | viability, T/C [14] [%] | viability, T/C [15] [%] | further results
CNCc1ccc(-c2cc(-c3nc(-c4ccc(S(=O)(=O)C(C)C)cc4)cnc3N)on2)cc1 + CC[C@@]1(O)C(=O)OCc2c1cc1n(c2=O)Cc2cc3c(CN(C)C)c(O)ccc3nc2-1 | 11.2 | < 9.49 | < 9.49 | < 9.49 | < 9.49 | 51 | 42.9 | 15.8 | 7.57 | 6.32 | 0.12 | 12.4 | 6.06 | 6.36 | 7.36 | 7.1 | 0.13 | 5.87 | 9.07 | 6.09 | viability, T/C [16]: 8.62%; viability, T/C [17]: 7.57%; viability, T/C [18]: 0.1%; viability, T/C [19]: 5.51%; viability, T/C [20]: 6.14%; viability, T/C [21]: 7.1%; viability, T/C [22]: 8.34%; viability, T/C [23]: 8.45%; viability, T/C [24]: 0.11%; viability, T/C [25]: 6.1%; viability, T/C [26]: 6.24%; viability, T/C [27]: 7.61%; viability, T/C [28]: 8.16%; viability, T/C [29]: 6.89%; viability, T/C [30]: 0.15%
Cc1sc2c(c1C)C(c1ccc(Cl)cc1)=NC(CC(=O)Nc1ccc(O)cc1)c1nnc(C)n1-2 (stereo not given) + CC[C@@]1(O)C(=O)OCc2c1cc1n(c2=O)Cc2cc3c(CN(C)C)c(O)ccc3nc2-1 | < 9.49 | < 9.49 | < 9.49 | < 9.49 | < 9.49 | 42.6 | 31.5 | 9.86 | 4.37 | 2.57 | 1.57 | 5.64 | 5.14 | 5 | 4.27 | 2.51 | 2.02 | 4.76 | 4.99 | 4.72 | viability, T/C [16]: 3.7%; viability, T/C [17]: 2.76%; viability, T/C [18]: 1.87%; viability, T/C [19]: 4.97%; viability, T/C [20]: 4.42%; viability, T/C [21]: 4.02%; viability, T/C [22]: 3.47%; viability, T/C [23]: 2.28%; viability, T/C [24]: 1.46%; viability, T/C [25]: 5.22%; viability, T/C [26]: 4.7%; viability, T/C [27]: 3.68%; viability, T/C [28]: 2.55%; viability, T/C [29]: 1.67%; viability, T/C [30]: 0.66%
